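Tested at 5 concentrations; 48 h exposure; 96-well plates; endpoints linearly interpolated, else capped at highest concentration. GI50 marks 50% less growth.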 Activity calls are given as the source filed them. Cut-off read from the data, not from the text of the source: active = GI50 up to about 1.1 µM and inactive = higher.
Legend:
Assay in all cases: growth of human tumour cells (NCI), 48 h
786-0 = tested on: 786-0
ACHN = tested on: ACHN
BT-549 = tested on: BT-549
EKVX = tested on: EKVX
HCT-15 = tested on: HCT-15
HOP-62 = tested on: HOP-62
HOP-92 = tested on: HOP-92
Hs-578T = tested on: Hs-578T
K562 = tested on: K562
NCI-H460 = tested on: NCI-H460
PC-3 = tested on: PC-3
RXF 393 = tested on: RXF 393
SF-268 = tested on: SF-268
SK-OV-3 = tested on: SK-OV-3
SR = tested on: SR
SW-620 = tested on: SW-620
T47D = tested on: T47D
TK-10 = tested on: TK-10
HCC 2998 = tested on: HCC 2998

With `CC(C)CCC1(CCN)C(=O)NC(=O)NC1=O` the GI50 (786-0) was > 100 µM (inactive), the GI50 (ACHN) was > 100 µM (inactive) and the GI50 (BT-549) was > 100 µM (inactive). The GI50 (EKVX) was > 100 µM (inactive), the GI50 (HCT-15) was > 100 µM and the GI50 (HOP-62) was > 100 µM (inactive). For the same compound, the GI50 (HOP-92) was > 100 µM (inactive), the GI50 (Hs-578T) was > 100 µM (inactive) and the GI50 (K562) was 16.3 µM (inactive). For the same compound, the GI50 (NCI-H460) was > 100 µM (inactive), the GI50 (PC-3) was > 100 µM (inactive) and the GI50 (RXF 393) was > 100 µM (inactive). For the same compound, the GI50 (SF-268) was > 100 µM (inactive), the GI50 (SK-OV-3) was > 100 µM (inactive) and the GI50 (SR) was 6.68 µM (inactive). For the same compound, the GI50 (SW-620) was > 100 µM (inactive), the GI50 (T47D) was > 100 µM (inactive) and the GI50 (TK-10) was > 100 µM (inactive).

`CCOC(=O)C1=C(C)NC(=O)NC1c1coc2cc(C)cc(C)c2c1=O` (configuration not stated) was tested, and the GI50 (786-0) was 67.9 µM (inactive), the GI50 (ACHN) was > 81.3 µM (inactive) and the GI50 (BT-549) was 99.3 µM (inactive). For the same compound, the GI50 (EKVX) was 31.6 µM (inactive), the GI50 (HCT-15) was 25 µM and the GI50 (HOP-62) was 36.8 µM (inactive). The GI50 (HOP-92) was > 74.3 µM (inactive), the GI50 (Hs-578T) was 56.2 µM (inactive) and the GI50 (K562) was 30.7 µM (inactive). For the same compound, the GI50 (NCI-H460) was 25.9 µM (inactive), the GI50 (PC-3) was 48.3 µM (inactive) and the GI50 (RXF 393) was 25.4 µM (inactive). For the same compound, the GI50 (SF-268) was 57.5 µM (inactive), the GI50 (SK-OV-3) was > 66.5 µM (inactive) and the GI50 (SR) was 10.2 µM (inactive). For the same compound, the GI50 (SW-620) was 32.1 µM (inactive), the GI50 (T47D) was > 69.5 µM (inactive) and the GI50 (TK-10) was 38.9 µM (inactive).

In the case of `COC(=O)c1ccccc1CC1Cc2ccc3c(c2C1=O)CCCC3` (configuration not stated), the GI50 (786-0) is reported as 35.2 µM (inactive), the GI50 (ACHN) is reported as 48.1 µM (inactive) and the GI50 (BT-549) is reported as 49.1 µM (inactive). For the same compound, the GI50 (EKVX) was 29.9 µM (inactive), the GI50 (HCC 2998) was 44.3 µM (inactive) and the GI50 (HCT-15) was 25.4 µM. For the same compound, the GI50 (HOP-62) was > 77.4 µM (inactive), the GI50 (Hs-578T) was 60.7 µM (inactive) and the GI50 (K562) was 17 µM (inactive). For the same compound, the GI50 (NCI-H460) was 68.5 µM (inactive), the GI50 (PC-3) was 23.7 µM (inactive) and the GI50 (SF-268) was 75.5 µM (inactive). For the same compound, the GI50 (SK-OV-3) was > 95.9 µM (inactive), the GI50 (SR) was 14 µM (inactive) and the GI50 (SW-620) was 32 µM (inactive). The GI50 (T47D) was 13.8 µM (inactive) and the GI50 (TK-10) was 51.4 µM (inactive).

With `Cc1cc(C)c(S(=O)(=O)N2CCCN(S(=O)(=O)c3c(C)cc(C)cc3C)OCCCO2)c(C)c1` the GI50 (786-0) was > 100 µM (inactive), the GI50 (ACHN) was > 100 µM (inactive) and the GI50 (BT-549) was > 100 µM (inactive). The GI50 (EKVX) was > 100 µM (inactive), the GI50 (HCT-15) was > 100 µM and the GI50 (HOP-62) was > 100 µM (inactive). The GI50 (HOP-92) was 47.1 µM (inactive), the GI50 (Hs-578T) was > 100 µM (inactive) and the GI50 (K562) was > 100 µM (inactive). The GI50 (NCI-H460) was > 100 µM (inactive), the GI50 (PC-3) was 89.3 µM (inactive) and the GI50 (RXF 393) was > 100 µM (inactive). The GI50 (SF-268) was > 100 µM (inactive), the GI50 (SK-OV-3) was > 100 µM (inactive) and the GI50 (SW-620) was > 100 µM (inactive). For the same compound, the GI50 (T47D) was 63.5 µM (inactive) and the GI50 (TK-10) was > 100 µM (inactive).

For `CCOC(=O)C1C(c2ccc(O)c(OC)c2)c2c(n[nH]c2O)CC1(C)O` (configuration not stated), the GI50 (786-0) was > 100 µM (inactive), the GI50 (ACHN) was > 100 µM (inactive) and the GI50 (BT-549) was 0.0159 µM (active). The GI50 (EKVX) was > 100 µM (inactive), the GI50 (HCC 2998) was > 100 µM (inactive) and the GI50 (HCT-15) was > 100 µM. For the same compound, the GI50 (HOP-62) was > 100 µM (inactive), the GI50 (HOP-92) was > 100 µM (inactive) and the GI50 (Hs-578T) was > 100 µM (inactive). The GI50 (NCI-H460) was > 10 µM (inactive), the GI50 (PC-3) was > 100 µM (inactive) and the GI50 (SF-268) was > 100 µM (inactive). For the same compound, the GI50 (SR) was > 100 µM (inactive), the GI50 (SW-620) was > 100 µM (inactive) and the GI50 (T47D) was > 100 µM (inactive). The GI50 (TK-10) was > 100 µM (inactive).

With `O=C(/C=C/c1ccccc1)CCN1CCN(CCC(=O)/C=C/c2ccccc2)CC1` the GI50 (786-0) was 6.05 µM (inactive), the GI50 (ACHN) was 16 µM (inactive) and the GI50 (BT-549) was 15.1 µM (inactive). For the same compound, the GI50 (EKVX) was 18.6 µM (inactive), the GI50 (HCC 2998) was 16.7 µM (inactive) and the GI50 (HCT-15) was 10.9 µM. For the same compound, the GI50 (HOP-62) was 22.6 µM (inactive), the GI50 (HOP-92) was 19.6 µM (inactive) and the GI50 (Hs-578T) was 10.4 µM (inactive). For the same compound, the GI50 (K562) was 3.97 µM (inactive), the GI50 (NCI-H460) was 15.2 µM (inactive) and the GI50 (PC-3) was 16.8 µM (inactive). For the same compound, the GI50 (RXF 393) was 13.7 µM (inactive), the GI50 (SF-268) was 13.8 µM (inactive) and the GI50 (SK-OV-3) was 13.5 µM (inactive). The GI50 (SW-620) was 4.67 µM (inactive), the GI50 (T47D) was 14.9 µM (inactive) and the GI50 (TK-10) was 16.4 µM (inactive).

With `O=C(O)CNc1ccc2c(c1)Cc1cc(Br)ccc1-2` the GI50 (786-0) was 39.6 µM (inactive), the GI50 (ACHN) was 33.1 µM (inactive) and the GI50 (BT-549) was 23.3 µM (inactive). For the same compound, the GI50 (EKVX) was 5.2 µM (inactive), the GI50 (HCT-15) was 31.1 µM and the GI50 (HOP-62) was > 44.6 µM (inactive). For the same compound, the GI50 (HOP-92) was 25.6 µM (inactive), the GI50 (Hs-578T) was 4.65 µM (inactive) and the GI50 (K562) was 9.29 µM (inactive). For the same compound, the GI50 (NCI-H460) was 21.8 µM (inactive), the GI50 (PC-3) was 27.2 µM (inactive) and the GI50 (RXF 393) was 31 µM (inactive). For the same compound, the GI50 (SF-268) was 28.5 µM (inactive), the GI50 (SK-OV-3) was 26.5 µM (inactive) and the GI50 (SW-620) was 24.2 µM (inactive). The GI50 (T47D) was 20.4 µM (inactive) and the GI50 (TK-10) was 31.1 µM (inactive).

In the case of `O=C(Nc1ccc(Cl)cc1)Oc1ccc(C(=S)Nc2ccc(Br)cc2)cc1`, the GI50 (786-0) is reported as 16 µM (inactive), the GI50 (ACHN) is reported as 12.2 µM (inactive) and the GI50 (BT-549) is reported as 17.9 µM (inactive). For the same compound, the GI50 (EKVX) was 2.49 µM (inactive), the GI50 (HCC 2998) was 15.4 µM (inactive) and the GI50 (HCT-15) was 11 µM. The GI50 (HOP-62) was 39.3 µM (inactive), the GI50 (Hs-578T) was 57.1 µM (inactive) and the GI50 (K562) was 2.36 µM (inactive). For the same compound, the GI50 (NCI-H460) was 4.85 µM (inactive), the GI50 (PC-3) was 21.1 µM (inactive) and the GI50 (SF-268) was 30.5 µM (inactive). The GI50 (SK-OV-3) was 26.5 µM (inactive), the GI50 (SR) was 5.06 µM (inactive) and the GI50 (SW-620) was 20.3 µM (inactive). For the same compound, the GI50 (T47D) was 10.5 µM (inactive).

From ChEMBL document CHEMBL1201862, “PubChem BioAssay data set” (2004)
